Data reported in patent US5846988A, “Thiazolidine-4-carboxylic acid derivatives as cytoprotective agents” (Alcon Laboratories, Inc., priority 1997, dated 1998).
Where two headings read alike, the source gives them in different places.

Tests used:
[1] = test system: excised pigmented rabbit lenses; experiment: Inhibition of lens changes caused by oxidative damage (diquat-exposed excised pigmented rabbit lenses; GSH loss and MDA formation); assay type: cell-based; details: Oryctolagus cuniculus, 1 mM test compound, 1 mM diquat, 3 h at 37° C.
Experimental: (§1) Evaluation of Cytoprotective Ability
Inhibition of lens changes caused by oxidative damage by representative compounds of the present invention as compared with the cysteine prodrug, 2-oxo-4-thiazolidine carboxylic acid, (Sigma Chemical Company, St Louis Mo.) is shown in Table 2 below. The cytoprotective effect was measured using excised pigmented rabbit lenses exposed to diquat using the method of Bhuyan (Free Radical Biology & Medicine, volume 12, pages 251-261, 1992). Normal lenses were extracted from the eyes immediately after sacrificing the pigmented rabbits. The lens were incubated in modified Krebs-Ringers bicarbonate medium containing 1 mM diquat dibromide monohydrate (Imperial Chemical Industries Ltd., London) and the test compound (1 mM). A non-test drug containing group was used as control. The lenses were incubated for 3 h at 37° C. in a shaking water bath. At the end of the incubation period each lens was removed and homogenated. Glutathione (GSH) and maliondialdehyde (MDA) levels were established by treating the supernatant with trichloracetic acid to precipitate proteins, and then using aliquots of the TCA supernatant to determine glutathione and MDA levels according to standard procedures. Degree of protection was measured as inhibition of GSH loss and inhibition of malondialdehyde formation.

bovine retinal pieces = experiment: Inhibition of lipid peroxide formation (TBARS) in hypoxic/reoxygenated bovine retinal pieces; assay type: cell-based; details: Bos taurus, hypoxia 1 h, test agent added after 50 min, reoxygenation 1 h; for inhibition at 100 µM: 0.1 mM, read-out: % Inhibition of TBARS Production (0.1 mM); for IC50: read-out: IC50 (inhibition of TBARS production)
Experimental: as §1
Inhibition of lipid peroxide formation by representative compounds of the present invention as compared with the cysteine prodrug, 2-oxo-4-thiazolidine carboxylic acid, (Sigma Chemical Company, St Louis Mo.) is shown in Table 1 below. The cytoprotective effect of the compound was measured using bovine retinal pieces. Retinal tissues were incubated in hypoxic media for 1 h. After 50 min. of hypoxia the test agents were added to the media to allow 10 min. for the drug to diffuse into the tissue prior to reoxygenation. The vehicle by itself, was added to the non-drug group. Following the incubation period, tissue was reoxygenated for 1 h. Lipid peroxidation was assessed by the formation of thiobarbituric acid reacting substances (TBARS). The tissues were homogenized and added to the trichloroacetic acid-thiobarbituric acid reagent and heated in the presence of BHT. The homogenate was filtered and the absorbance of the supernant was measured spectrophotometrically. A double derivative technique was used to calculate the concentration of TBARS present in each sample. Quantiation was based on a molar extinction coefficient of 1.56×10^5.

[2] = read-out: % Inhibition GSH loss
[3] = read-out: % Inhibition MDA formation

Row | IC50 (bovine retinal pieces) [µM] | SMILES | inhibition at 1000 µM [1, 2] [%] | inhibition at 1000 µM [1, 3] [%] | inhibition at 100 µM (bovine retinal pieces) [%]
1 | 0.05 | CC(C)(C)c1cc(C2N[C@H](C(=O)O)CS2)cc(C(C)(C)C)c1O (stereo partly drawn) [Example 1, (4R)-2-(3,5-di-tert-butyl-4-hydroxyphenyl)-4-thiazolidine carboxylic acid] | 40 | 76 | 95
2 | – | O=C1NC(C(=O)O)CS1 (stereo not drawn) [2-oxo-4-thiazolidine carboxylic acid, reference compound] | 9.4 | 28 | -38
3 | 3 | Cc1c(C)c2c(c(C)c1O)CCC(C)(C1N[C@H](C(=O)O)CS1)O2 (stereo partly drawn) [Example 2, (4R)-2-(6-hydroxy-2,5,7,8-tetramethyl-3,4-dihydro-2H-benzo[1,2-b]pyran-2-yl)-4-thiazolidine carboxylic acid] | – | – | 90
